{"source": "paper PMC6940897", "about": "“Less Cytotoxic Protoflavones as Antiviral Agents: Protoapigenone 1′-O-isopropyl ether Shows Improved Selectivity Against the Epstein–Barr Virus Lytic Cycle” (International Journal of Molecular Sciences, 2019)", "key": {"[1]": {"experiment": "MTT cytotoxicity on the HIV host cells", "type": "cell-based", "settings": "human, U373-CD4-CCR5 cells, MTT, 48 h, n=2; tested up to 100 µM (compound 9 up to 500 µM); read-out: Cytotoxic IC50 ± SEM", "experimental": "(§1) The U373-CD4-CCR5 cell line was obtained from the AIDS Research and Reagent Program, NIAID. Cells were cultured according to the protocol of the provider with 10% heat-inactivated fetal bovine serum (Lonza, Maastricht, The Netherlands) supplemented with 2 mM L-glutamine, 100 units/mL of penicillin, and 100 µg/mL streptomycin (Invitrogen, Merelbeke, Belgium). Pseudotyped viral particules bearing the ADA HIV Env were produced, as described previously.\n(§2) Antiviral activity was assessed while using a Pseudotype Virus Assay, allowing for one cycle of viral replication. The U373-CD4-CCR5 cells were infected by pseudotyped virus pNL4.3ΔenvLuc-ADA 8 using spinoculation at 1200 g during 2 h in the presence of compounds and cultured for two consecutive days in the presence of the compounds. After 48 h, luciferase activity expressed as Relative Light Units was measured (Luciferase System kit, Promega, The Netherlands). Drug cytotoxicity was evaluated while using MTT (3-(4,5-dimethylthiazol-2-yl)-2,5-diphenyltetrazolium bromide, Sigma, Belgium) 48 h after incubation with the compounds by measuring A540 and A690 using a POLARstar Omega Plate Reader (BMG Lab Technologies, Belgium) after 48 h of incubation with the compounds. The value of OD540–OD690 was calculated."}, "[2]": {"experiment": "MTT cytotoxicity assay on P3HR1 cells", "type": "cell-based", "settings": "human, 24 h", "experimental": "(§3) EBV-positive BL cell line P3HR1 cells were cultured in RPMI 1640 medium. Culture media were supplemented with 10% fetal calf serum. P3HR1 cells were treated with 3 mM sodium butyrate and 30 nM 12-O-tetradecanoylphobol-13-actetae (TPA) to induce the EBV lytic cycle.\n(§4) P3HR1 cells (5 × 10^4) were seeded in wells of a 96-well plate and then cultured for 24 h in 100 µL of RPMI 1640 medium containing protoapigenone or its analogs. Subsequently, 1% Triton X-100 was added as a […] control. Cytotoxicity was determined by Cell Proliferation Kit I (Roche, Basel, Switzerland). An aliquot of 10 µL of the MTT labeling reagent was added to each well and the plate was incubated for 4 h at 37°C. Afterwards, 100 µL solubilization solution was added to each well to dissolve insoluble formazan and was incubated overnight. Optical density was measured at 595 nm and 650 nm."}, "[3]": {"system": "EBV lytic cycle (expression of EBV Rta)", "experiment": "Inhibition of EBV lytic cycle: immunoblot of Rta expression in P3HR1 cells after lytic induction", "type": "cell-based, Epstein–Barr Virus", "settings": "for IC50: human gammaherpesvirus 4, P3HR-1, 24 h after lytic induction with SB and TPA; for IC50 / concentration causing a marked reduction in the Rta levels: immunoblot; for selectivity ratio at 24 h: human, cytotoxic IC50 (P3HR1) / anti-EBV Rta IC50, read-out: Selectivity of the anti-EBV vs. cytotoxic effect (ratio of the corresponding IC50 values); for inhibition of EBV lytic cycle, first screening (in words): 0.25 µM, sodium butyrate + TPA, 24 h; for concentration causing a marked reduction in the Rta levels: 24 h after lytic induction", "experimental": "Compounds 2 and 6–28 were tested for their activity on the EBV lytic cycle. To assess this, the P3HR1 cells were treated with sodium butyrate and TPA for 24 h. As expected, lytic protein Rta was expressed after lytic induction. As a first screening, the cells were treated with protoapigenone (2), used as a positive control, or compounds 6–28 at the induction of lytic cycle for 24 h.\nas §3\nP3HR1 cells were lysed in mRIPA buffer (50 mM Tris-HCl, pH 7.8, 150 mM NaCl, 5 mM EDTA, 0.5% Triton X-100, 0.5% NP-40). Approximately 5% of the lysate was loaded to a gel and then separated by electrophoresis in 10% SDS-PAGE. The proteins in the gel were electroblotted onto a polyvinylidene difluoride (PVDF) blotting membrane while using a Hoefer transfer system. Rta was detected while using mouse anti-Rta monoclonal antibody (Argene, Verniolle, France). α-Tubulin was detected using mouse anti-α-tubulin monoclonal antibody (Abcam, Cambridge, UK). Primary antibodies were detected using horseradish peroxidase-conjugated secondary antibodies (Cell Signaling Technology, Danvers, MA, USA) and then visualized using SuperSignal West Pico Chemiluminescent substrate (Thermo Fisher Scientific, Waltham, MA, USA)."}, "[4]": {"system": "EBV lytic cycle (expression of EBV Rta)", "parameters": "method as in PMID 21490247", "settings": "0.25 µM; cited from earlier work"}, "P3HR1 cells": {"system": "P3HR1 cells", "experiment": "MTT cytotoxicity assay on P3HR1 cells", "type": "cell-based", "experimental": "as §3, §4"}, "HIV-1": {"system": "HIV-1", "experiment": "HIV-1 pseudotype virus assay (one cycle of viral replication, luciferase readout)", "type": "cell-based", "experimental": "Compounds 2, 6–14, and 21–28 were tested against HIV-1 while using a pseudotype virus assay allowing only one cycle of viral replication and being more sensitive for compounds targeting the early steps of HIV replication, such as reverse transcription and integration. […] While this represents a rather weak activity, it might still be of interest, since this compound was not cytotoxic on the host cells at as high as 500 µM concentration.\nas §1, with “Pseudotyped viral particules bearing the ADA HIV Env were produced, as described previously.” left out\nas §2, with “The U373-CD4-CCR5 cells were infected by pseudotyped virus pNL4.3ΔenvLuc-ADA 8 using spinoculation at 1200 g during 2 h in the presence of compounds and cultured for two consecutive days in the presence of the compounds.” left out"}, "U373-CD4-CCR5 cells": {"system": "U373-CD4-CCR5 cells", "experiment": "MTT cytotoxicity on the HIV host cells", "type": "cell-based", "settings": "for IC50: U373-CD4-CCR5 cells, MTT, 48 h, n=2, tested up to 100 µM (compound 9 up to 500 µM), read-out: Cytotoxic IC50 ± SEM", "experimental": "as §1, §2"}}, "note": "“Also recorded” adds a separate entry of the source."}
{"molecule": "O=C1C=CC(O)(c2cc(=O)c3c(O)cc(O)cc3o2)C=C1", "note": "[Compound 2, protoapigenone]", "values": [{"measurement": "IC50 at 48 h", "setting": "[1]", "result": "0.22 ± 0.003", "unit": "µM"}, {"measurement": "IC50 at 24 h", "setting": "[2]", "result": 3.86, "unit": "µM"}, {"measurement": "IC50", "setting": "[3]", "result": 127, "unit": "nM"}, {"measurement": "selectivity ratio at 24 h", "setting": "[3]", "result": 30.1}, {"measurement": "activity against EBV lytic cycle (in words)", "setting": "[4]", "result": "strong activity"}]}
{"molecule": "CC(C)OC1(c2cc(=O)c3c(O)cc(O)cc3o2)C=CC(=O)C=C1", "note": "[Compound 6, protoapigenone 1′-O-isopropyl ether]", "values": [{"measurement": "IC50 at 48 h", "setting": "[1]", "result": "2.09 ± 0.13", "unit": "µM"}, {"measurement": "IC50 at 24 h", "setting": "[2]", "result": 34.1, "unit": "µM"}, {"measurement": "cytotoxic activity compared to protoapigenone (in words)", "setting": "P3HR1 cells", "result": "much weaker; also recorded: an order of magnitude lower cytotoxic effect"}, {"measurement": "inhibition of EBV lytic cycle, first screening (in words)", "setting": "[3]", "result": "can inhibit EBV lytic cycle"}, {"measurement": "concentration causing a marked reduction in the Rta levels", "setting": "[3]", "result": 0.50, "unit": "µM"}, {"measurement": "IC50", "setting": "[3]", "result": 467, "unit": "nM"}, {"measurement": "selectivity ratio at 24 h", "setting": "[3]", "result": 73}]}
{"molecule": "CCCCOC1(c2cc(=O)c3c(O)cc(O)cc3o2)C=CC(=O)C=C1", "note": "[Compound 7]", "values": [{"measurement": "IC50 at 48 h", "setting": "[1]", "result": "0.25 ± 0.002", "unit": "µM"}, {"measurement": "IC50 at 24 h", "setting": "[2]", "result": 2.04, "unit": "µM"}, {"measurement": "cytotoxic activity compared to protoapigenone (in words)", "setting": "P3HR1 cells", "result": "similarly active as protoapigenone"}, {"measurement": "inhibition of EBV lytic cycle, first screening (in words)", "setting": "[3]", "result": "can inhibit EBV lytic cycle"}, {"measurement": "concentration causing a marked reduction in the Rta levels", "setting": "[3]", "result": 0.25, "unit": "µM"}, {"measurement": "IC50", "setting": "[3]", "result": 208, "unit": "nM"}, {"measurement": "selectivity ratio at 24 h", "setting": "[3]", "result": 9.8}]}
{"molecule": "C#CCOC1(c2cc(=O)c3c(O)cc(O)cc3o2)C=CC(=O)C=C1", "note": "[Compound 8, protoapigenone 1′-O-propargyl ether]", "values": [{"measurement": "IC50 at 48 h", "setting": "[1]", "result": "0.67 ± 0.03", "unit": "µM"}, {"measurement": "IC50 at 24 h", "setting": "[2]", "result": 4.93, "unit": "µM"}, {"measurement": "cytotoxic activity compared to protoapigenone (in words)", "setting": "P3HR1 cells", "result": "similarly active as protoapigenone"}, {"measurement": "inhibition of EBV lytic cycle, first screening (in words)", "setting": "[3]", "result": "can inhibit EBV lytic cycle"}, {"measurement": "concentration causing a marked reduction in the Rta levels", "setting": "[3]", "result": 0.50, "unit": "µM"}, {"measurement": "IC50", "setting": "[3]", "result": 285, "unit": "nM"}, {"measurement": "selectivity ratio at 24 h", "setting": "[3]", "result": 17.3}]}
{"molecule": "O=C1CCC(O)(c2cc(=O)c3c(O)cc(O)cc3o2)CC1", "note": "[Compound 9, Tetrahydroprotoapigenone]", "values": [{"measurement": "inhibition at 100 µM", "setting": "HIV-1; Human immunodeficiency virus 1, 48 h, read-out: inhibition of viral infection", "result": "~50", "unit": "%"}, {"measurement": "antiretroviral activity against HIV-1 (in words)", "setting": "HIV-1; pseudotype virus assay, 100 µM where stated", "result": "inhibits HIV-1 infection; also recorded: weak antiretroviral activity"}, {"measurement": "IC50 at 48 h", "setting": "[1]", "result": "> 500", "unit": "µM"}, {"measurement": "cytotoxicity on the host cells (in words)", "setting": "U373-CD4-CCR5 cells; at as high as 500 µM", "result": "not cytotoxic"}]}
{"molecule": "COC1(c2cc(=O)c3c(O)cc(O)cc3o2)CCC(=O)CC1", "note": "[Compound 10]", "values": [{"measurement": "IC50 at 48 h", "setting": "[1]", "result": "> 100", "unit": "µM"}]}
{"molecule": "CCOC1(c2cc(=O)c3c(O)cc(O)cc3o2)CCC(=O)CC1", "note": "[Compound 11]", "values": [{"measurement": "IC50 at 48 h", "setting": "[1]", "result": "> 100", "unit": "µM"}]}
{"molecule": "CCCOC1(c2cc(=O)c3c(O)cc(O)cc3o2)CCC(=O)CC1", "note": "[Compound 12]", "values": [{"measurement": "IC50 at 48 h", "setting": "[1]", "result": "> 100", "unit": "µM"}]}
{"molecule": "CC(C)OC1(c2cc(=O)c3c(O)cc(O)cc3o2)CCC(=O)CC1", "note": "[Compound 13]", "values": [{"measurement": "IC50 at 48 h", "setting": "[1]", "result": "> 100", "unit": "µM"}]}
{"molecule": "CCCCOC1(c2cc(=O)c3c(O)cc(O)cc3o2)CCC(=O)CC1", "note": "[Compound 14]", "values": [{"measurement": "IC50 at 48 h", "setting": "[1]", "result": "~6.37", "unit": "µM"}]}
{"molecule": "COC1CC(=NO)C=CC1(OC(C)C)c1cc(=O)c2c(O)cc(O)cc2o1", "note": "(stereo not shown) [Compound 21]", "values": [{"measurement": "IC50 at 48 h", "setting": "[1]", "result": "> 100", "unit": "µM"}]}
{"molecule": "CCCCOC1(c2cc(=O)c3c(O)cc(O)cc3o2)C=CC(=NO)CC1OC", "note": "(stereo not shown) [Compound 22]", "values": [{"measurement": "IC50 at 48 h", "setting": "[1]", "result": "> 100", "unit": "µM"}]}
{"molecule": "C#CCOC1(c2cc(=O)c3c(O)cc(O)cc3o2)C=CC(=NO)CC1OC", "note": "(stereo not shown) [Compound 23]", "values": [{"measurement": "IC50 at 48 h", "setting": "[1]", "result": "~89.5", "unit": "µM"}]}
{"molecule": "COC1CC(=NO)C=CC1(OC(C)C)c1cc(=O)c2c(O)cc(O)cc2o1", "note": "(stereo not shown) [Compound 24]", "values": [{"measurement": "IC50", "setting": "U373-CD4-CCR5 cells", "result": "> 100", "unit": "µM"}]}
{"molecule": "CCCCOC1(c2cc(=O)c3c(O)cc(O)cc3o2)C=CC(=NO)CC1OC", "note": "(stereo not shown) [Compound 25]", "values": [{"measurement": "IC50", "setting": "U373-CD4-CCR5 cells", "result": "53.88 ± 0.35", "unit": "µM"}]}
{"molecule": "C#CCOC1(c2cc(=O)c3c(O)cc(O)cc3o2)C=CC(=NO)CC1OC", "note": "(stereo not shown) [Compound 26]", "values": [{"measurement": "IC50", "setting": "U373-CD4-CCR5 cells", "result": "> 100", "unit": "µM"}]}
{"molecule": "O=c1cc(C2(O)CCC(=NO)CC2)oc2cc(O)cc(O)c12", "note": "(stereo not shown) [Compound 27]", "values": [{"measurement": "IC50 at 48 h", "setting": "[1]", "result": "> 100", "unit": "µM"}]}
{"molecule": "CCCCOC1(c2cc(=O)c3c(O)cc(O)cc3o2)CCC(=NO)CC1", "note": "(stereo not shown) [Compound 28]", "values": [{"measurement": "IC50 at 48 h", "setting": "[1]", "result": "27 ± 8.4", "unit": "µM"}]}
